# Test system: not listed separately
# Test: Selectivity index, ratio of CC50 for african green monkey Vero cells to MIC for multidrug-resistant Mycobacterium tuberculosis
# Assay type: toxicity, cell-based
# Details: read-out: Selectivity Index
row,SMILES,selectivity ratio
1,O=[N+]([O-])c1ccc(/C=N\NC(=S)N(Cc2ccccc2)Cc2ccccc2)o1,1320

# Test system: Mycobacterium tuberculosis
# Test: Ratio of ethambutol MIC to compound MIC for multidrug-resistant Mycobacterium tuberculosis
# Assay type: functional
# Details: not given
row,SMILES,Ratio
1,O=[N+]([O-])c1ccc(/C=N\NC(=S)N(Cc2ccccc2)Cc2ccccc2)o1,314

# Test system: Mycobacterium tuberculosis
# Test: Ratio of ofloxacin MIC to compound MIC for multidrug-resistant Mycobacterium tuberculosis
# Assay type: functional
# Details: not given
row,SMILES,Ratio
1,O=[N+]([O-])c1ccc(/C=N\NC(=S)N(Cc2ccccc2)Cc2ccccc2)o1,288

# Test system: Mycobacterium tuberculosis
# Test: Ratio of rifampicin MIC to compound MIC for multidrug-resistant Mycobacterium tuberculosis
# Assay type: functional
# Details: not given
row,SMILES,Ratio
1,O=[N+]([O-])c1ccc(/C=N\NC(=S)N(Cc2ccccc2)Cc2ccccc2)o1,31

# Test system: Mycobacterium tuberculosis
# Test: Ratio of isoniazid MIC to compound MIC for multidrug-resistant Mycobacterium tuberculosis
# Assay type: functional
# Details: not given
row,SMILES,Ratio
1,O=[N+]([O-])c1ccc(/C=N\NC(=S)N(Cc2ccccc2)Cc2ccccc2)o1,379

# Test system: Mycobacterium tuberculosis
# Test: Antitubercular activity against multidrug-resistant Mycobacterium tuberculosis by NCCLS agar dilution method
# Assay type: functional
# Details: not given
row,SMILES,MIC [µM]
1,C=CCN(CC=C)C(=S)NN=C(c1ccccc1)c1ccccc1,2.32
2,C=CCN(CC=C)C(=S)N/N=C(/C)c1ccccc1,11.4
3,S=C(NN=C(c1ccccc1)c1ccccc1)N(Cc1ccccc1)Cc1ccccc1,1.79
4,O=[N+]([O-])c1ccc(/C=N\NC(=S)N(Cc2ccccc2)Cc2ccccc2)o1,0.12
5,NNC(=O)c1ccncc1 [ISONIAZID],45.6
6,C/C(=N/NC(=S)N(Cc1ccccc1)Cc1ccccc1)c1ccc(N)cc1,8.04
7,S=C(N/N=C\c1ccccc1)N(Cc1ccccc1)Cc1ccccc1,8.71
8,C/C(=N/NC(=S)N(Cc1ccccc1)Cc1ccccc1)c1ccc([N+](=O)[O-])cc1,1.86
9,C=CCN(CC=C)C(=S)N/N=C(/C)c1ccc([N+](=O)[O-])cc1,9.83
10,C/C(=N/NC(=S)N(Cc1ccccc1)Cc1ccccc1)c1ccc(F)cc1,3.98
11,O=[N+]([O-])c1ccc(/C=N\NC(=S)N(Cc2ccccc2)Cc2ccccc2)cc1,0.98
12,C=CCN(CC=C)C(=S)N/N=C(/C)c1ccccc1O,10.8
13,Cc1ccccc1/C=N\NC(=S)N(Cc1ccccc1)Cc1ccccc1,4.71
14,S=C(N/N=C\c1ccc(Cl)cc1)N(Cc1ccccc1)Cc1ccccc1,1.98
15,CC[C@@H](CO)NCCN[C@@H](CC)CO [ETHAMBUTOL],37.7
16,C=CCN(CC=C)C(=S)N/N=C\c1ccccc1C,5.7
17,C=CCN(CC=C)C(=S)N/N=C\c1ccc([N+](=O)[O-])cc1,1.31
18,C/C(=N/NC(=S)N(Cc1ccccc1)Cc1ccccc1)c1ccc(O)cc1,8.03
19,O=[N+]([O-])c1ccccc1/C=N\NC(=S)N(Cc1ccccc1)Cc1ccccc1,0.98
20,C/C(=N/NC(=S)N(Cc1ccccc1)Cc1ccccc1)c1ccccc1O,8.03
21,C=CCN(CC=C)C(=S)N/N=C(/C)c1ccc(O)cc1,10.8
22,C=CCN(CC=C)C(=S)N/N=C(/C)c1ccc(F)cc1,5.35
23,C=CCN(CC=C)C(=S)N/N=C\c1ccc(Cl)cc1,2.65
24,C=CCN(CC=C)C(=S)N/N=C\c1ccccc1[N+](=O)[O-],2.56
25,Oc1ccccc1/C=N\NC(=S)N(Cc1ccccc1)Cc1ccccc1,4.16
26,C=CCN(CC=C)C(=S)N/N=C\c1ccc([N+](=O)[O-])o1,0.67
27,CO[C@H]1/C=C/O[C@@]2(C)Oc3c(C)c(O)c4c(O)c(c(/C=N/N5CCN(C)CC5)c(O)c4c3C2=O)NC(=O)/C(C)=C\C=C\[C@H](C)[C@H](O)[C@@H](C)[C@@H](O)[C@@H](C)[C@H](OC(C)=O)[C@@H]1C [RIFAMPIN],3.79
28,C/C(=N/NC(=S)N(Cc1ccccc1)Cc1ccccc1)c1ccccc1,4.17
